# Test results from ChEMBL document CHEMBL5465560, “Selectivity Literature for EUbOPEN Chemogenomic Library” (2024).
# How the values were obtained:
# [1] = target: Ribosomal protein S6 kinase alpha-2 (Homo sapiens) (UniProt Q15349); assay: Selectivity interaction (KinomeScan (DiscoverX)) EUB0001049a RPS6KA2; conditions: at 1 µM
# [2] = tested on: eIF-2-alpha kinase GCN2 (Homo sapiens), Q9P2K8 [S808G]; assay: Selectivity interaction (KinomeScan (DiscoverX)) EUB0000666a EIF2AK4; conditions: at 10 µM
# [3] = target: 5-hydroxytryptamine receptor 2B (Homo sapiens, UniProt P41595); assay: Selectivity interaction (Eurofins safety panel) EUB0001564a HTR2B; conditions: at 10 µM
# [4] = target: cAMP-dependent protein kinase catalytic subunit beta (Homo sapiens) (UniProt P22694); conditions: at 10 µM
# [5] = target: T1, Mitogen-activated protein kinase kinase kinase 15 (Homo sapiens) (UniProt Q6ZN16); assay: Selectivity interaction (KinomeScan (DiscoverX)) EUB0000595a MAP3K15; conditions: at 10 µM
# T1 sequence (whole entry): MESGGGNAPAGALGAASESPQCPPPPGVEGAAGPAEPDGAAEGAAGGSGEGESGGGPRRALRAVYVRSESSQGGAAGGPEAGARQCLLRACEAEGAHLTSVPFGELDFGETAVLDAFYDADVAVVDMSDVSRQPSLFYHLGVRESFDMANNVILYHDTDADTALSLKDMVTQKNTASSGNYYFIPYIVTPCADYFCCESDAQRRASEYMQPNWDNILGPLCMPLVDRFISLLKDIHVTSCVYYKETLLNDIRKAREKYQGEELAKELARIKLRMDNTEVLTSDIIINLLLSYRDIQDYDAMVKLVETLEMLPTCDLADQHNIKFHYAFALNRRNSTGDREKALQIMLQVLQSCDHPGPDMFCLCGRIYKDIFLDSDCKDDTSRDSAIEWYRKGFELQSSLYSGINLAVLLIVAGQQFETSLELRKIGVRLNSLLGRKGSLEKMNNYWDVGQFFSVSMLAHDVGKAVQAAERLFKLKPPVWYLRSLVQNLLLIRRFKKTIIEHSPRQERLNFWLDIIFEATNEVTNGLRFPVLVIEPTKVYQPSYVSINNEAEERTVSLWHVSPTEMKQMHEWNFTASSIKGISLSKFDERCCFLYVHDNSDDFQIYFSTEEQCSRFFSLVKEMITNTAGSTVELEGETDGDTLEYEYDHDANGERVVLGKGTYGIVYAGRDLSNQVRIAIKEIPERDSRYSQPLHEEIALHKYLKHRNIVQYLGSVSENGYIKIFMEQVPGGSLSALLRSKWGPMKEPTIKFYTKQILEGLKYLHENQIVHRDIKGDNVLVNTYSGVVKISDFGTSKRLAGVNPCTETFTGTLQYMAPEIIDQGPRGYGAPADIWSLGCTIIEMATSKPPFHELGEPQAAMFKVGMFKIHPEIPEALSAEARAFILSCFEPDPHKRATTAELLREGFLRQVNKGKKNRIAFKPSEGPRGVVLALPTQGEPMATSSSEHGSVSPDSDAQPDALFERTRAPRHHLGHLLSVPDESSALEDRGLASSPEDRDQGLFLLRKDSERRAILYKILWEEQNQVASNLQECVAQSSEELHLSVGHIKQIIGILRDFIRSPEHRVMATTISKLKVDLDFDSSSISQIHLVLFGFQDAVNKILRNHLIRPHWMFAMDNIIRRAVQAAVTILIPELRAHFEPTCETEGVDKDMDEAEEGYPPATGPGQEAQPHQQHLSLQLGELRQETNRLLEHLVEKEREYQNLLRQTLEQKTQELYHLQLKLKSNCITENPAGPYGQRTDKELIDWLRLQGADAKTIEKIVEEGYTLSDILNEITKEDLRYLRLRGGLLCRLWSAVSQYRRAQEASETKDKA
# [6] = target: T2, Rhodopsin kinase GRK1 (Homo sapiens) (UniProt Q15835); assay: Selectivity interaction (KinomeScan (DiscoverX)) EUB0000595a GRK1; conditions: at 10 µM
# T2 sequence (whole entry): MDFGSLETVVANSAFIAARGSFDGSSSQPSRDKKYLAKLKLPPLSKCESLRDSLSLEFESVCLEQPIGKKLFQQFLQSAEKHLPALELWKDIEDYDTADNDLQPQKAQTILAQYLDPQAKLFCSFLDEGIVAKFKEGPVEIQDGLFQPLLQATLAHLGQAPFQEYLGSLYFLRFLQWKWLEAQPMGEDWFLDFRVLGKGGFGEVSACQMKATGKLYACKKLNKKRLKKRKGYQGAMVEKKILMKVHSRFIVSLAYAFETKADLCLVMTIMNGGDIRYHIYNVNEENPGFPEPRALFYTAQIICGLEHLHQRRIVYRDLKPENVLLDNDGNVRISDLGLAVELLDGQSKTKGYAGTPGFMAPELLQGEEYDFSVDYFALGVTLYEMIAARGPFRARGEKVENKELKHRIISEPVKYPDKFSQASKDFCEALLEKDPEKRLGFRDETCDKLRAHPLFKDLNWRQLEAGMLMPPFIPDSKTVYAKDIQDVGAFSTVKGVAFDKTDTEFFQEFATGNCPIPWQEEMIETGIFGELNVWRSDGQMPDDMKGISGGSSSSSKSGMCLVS
# [7] = target: Tyrosine-protein kinase ABL1 (Homo sapiens, UniProt P00519); assay: Selectivity interaction (KinomeScan (DiscoverX)) EUB0000618a ABL1; conditions: at 10 µM
# [8] = target: Homeodomain-interacting protein kinase 2 (Homo sapiens, UniProt Q9H2X6); conditions: at 10 µM
# [9] = tested on: Hepatocyte growth factor receptor (Homo sapiens), P08581 [M1250T]; conditions: at 10 µM
# [10] = target: Cyclin-dependent kinase 5 (Homo sapiens, UniProt Q00535); assay: Selectivity interaction (ActivX KiNativ screen (ex vivo kinase selectivity in human PBMCs)) EUB0001619a CDK5; format: cell-based; conditions: PBMC, at 1 µM
# [11] = target: Mitogen-activated protein kinase kinase kinase 20 (Homo sapiens) (UniProt Q9NYL2); assay: Selectivity interaction (KinomeScan (DiscoverX)) EUB0001619a MAP3K20; conditions: at 1 µM
# [12] = target: Protein kinase C beta type (Homo sapiens, UniProt P05771); assay: Selectivity interaction (Upstate Kinase Profiler service (Millipore)) EUB0000056c PRKCB; conditions: at 1 µM
# [13] = target: T3, Mitogen-activated protein kinase 13 (Homo sapiens) (UniProt O15264); assay: Selectivity interaction (ProQinase) EUB0000171b MAPK13
# T3 sequence (whole entry): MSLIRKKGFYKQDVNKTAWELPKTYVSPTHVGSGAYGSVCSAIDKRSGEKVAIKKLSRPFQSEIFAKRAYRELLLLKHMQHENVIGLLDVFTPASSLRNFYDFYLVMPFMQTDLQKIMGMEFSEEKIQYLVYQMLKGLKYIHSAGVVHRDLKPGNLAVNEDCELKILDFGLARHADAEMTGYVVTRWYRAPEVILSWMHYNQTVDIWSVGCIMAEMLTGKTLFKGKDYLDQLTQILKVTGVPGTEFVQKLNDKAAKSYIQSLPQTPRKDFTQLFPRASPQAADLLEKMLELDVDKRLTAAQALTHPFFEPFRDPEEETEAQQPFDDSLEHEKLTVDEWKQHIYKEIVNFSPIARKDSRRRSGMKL
# Chain of Mitogen-activated protein kinase kinase kinase 20 (Homo sapiens) (Q9NYL2 2-800 limits assumed): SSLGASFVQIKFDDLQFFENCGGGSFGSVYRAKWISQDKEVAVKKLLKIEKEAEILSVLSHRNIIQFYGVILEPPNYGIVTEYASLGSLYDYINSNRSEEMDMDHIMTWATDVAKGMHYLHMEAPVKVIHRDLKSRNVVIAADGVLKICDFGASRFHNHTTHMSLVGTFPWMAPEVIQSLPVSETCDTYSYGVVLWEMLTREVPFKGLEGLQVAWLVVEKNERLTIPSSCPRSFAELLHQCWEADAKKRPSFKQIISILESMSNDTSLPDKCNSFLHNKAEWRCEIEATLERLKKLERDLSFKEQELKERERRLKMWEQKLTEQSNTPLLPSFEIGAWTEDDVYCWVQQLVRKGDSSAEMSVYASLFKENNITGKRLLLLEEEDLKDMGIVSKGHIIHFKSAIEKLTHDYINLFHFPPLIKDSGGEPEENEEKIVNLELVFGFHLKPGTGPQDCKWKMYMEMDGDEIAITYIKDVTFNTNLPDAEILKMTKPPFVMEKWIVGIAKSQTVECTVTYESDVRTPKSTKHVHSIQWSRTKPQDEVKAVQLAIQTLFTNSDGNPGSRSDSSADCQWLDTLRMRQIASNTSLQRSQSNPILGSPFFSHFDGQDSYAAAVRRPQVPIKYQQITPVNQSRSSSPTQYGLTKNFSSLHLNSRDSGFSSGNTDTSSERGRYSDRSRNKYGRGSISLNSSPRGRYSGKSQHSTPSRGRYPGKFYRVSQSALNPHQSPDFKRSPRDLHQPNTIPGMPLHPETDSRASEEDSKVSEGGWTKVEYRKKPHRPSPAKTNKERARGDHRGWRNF
# Chain of eIF-2-alpha kinase GCN2 (Homo sapiens), Q9P2K8 [S808G] (Q9P2K8 whole entry S808G): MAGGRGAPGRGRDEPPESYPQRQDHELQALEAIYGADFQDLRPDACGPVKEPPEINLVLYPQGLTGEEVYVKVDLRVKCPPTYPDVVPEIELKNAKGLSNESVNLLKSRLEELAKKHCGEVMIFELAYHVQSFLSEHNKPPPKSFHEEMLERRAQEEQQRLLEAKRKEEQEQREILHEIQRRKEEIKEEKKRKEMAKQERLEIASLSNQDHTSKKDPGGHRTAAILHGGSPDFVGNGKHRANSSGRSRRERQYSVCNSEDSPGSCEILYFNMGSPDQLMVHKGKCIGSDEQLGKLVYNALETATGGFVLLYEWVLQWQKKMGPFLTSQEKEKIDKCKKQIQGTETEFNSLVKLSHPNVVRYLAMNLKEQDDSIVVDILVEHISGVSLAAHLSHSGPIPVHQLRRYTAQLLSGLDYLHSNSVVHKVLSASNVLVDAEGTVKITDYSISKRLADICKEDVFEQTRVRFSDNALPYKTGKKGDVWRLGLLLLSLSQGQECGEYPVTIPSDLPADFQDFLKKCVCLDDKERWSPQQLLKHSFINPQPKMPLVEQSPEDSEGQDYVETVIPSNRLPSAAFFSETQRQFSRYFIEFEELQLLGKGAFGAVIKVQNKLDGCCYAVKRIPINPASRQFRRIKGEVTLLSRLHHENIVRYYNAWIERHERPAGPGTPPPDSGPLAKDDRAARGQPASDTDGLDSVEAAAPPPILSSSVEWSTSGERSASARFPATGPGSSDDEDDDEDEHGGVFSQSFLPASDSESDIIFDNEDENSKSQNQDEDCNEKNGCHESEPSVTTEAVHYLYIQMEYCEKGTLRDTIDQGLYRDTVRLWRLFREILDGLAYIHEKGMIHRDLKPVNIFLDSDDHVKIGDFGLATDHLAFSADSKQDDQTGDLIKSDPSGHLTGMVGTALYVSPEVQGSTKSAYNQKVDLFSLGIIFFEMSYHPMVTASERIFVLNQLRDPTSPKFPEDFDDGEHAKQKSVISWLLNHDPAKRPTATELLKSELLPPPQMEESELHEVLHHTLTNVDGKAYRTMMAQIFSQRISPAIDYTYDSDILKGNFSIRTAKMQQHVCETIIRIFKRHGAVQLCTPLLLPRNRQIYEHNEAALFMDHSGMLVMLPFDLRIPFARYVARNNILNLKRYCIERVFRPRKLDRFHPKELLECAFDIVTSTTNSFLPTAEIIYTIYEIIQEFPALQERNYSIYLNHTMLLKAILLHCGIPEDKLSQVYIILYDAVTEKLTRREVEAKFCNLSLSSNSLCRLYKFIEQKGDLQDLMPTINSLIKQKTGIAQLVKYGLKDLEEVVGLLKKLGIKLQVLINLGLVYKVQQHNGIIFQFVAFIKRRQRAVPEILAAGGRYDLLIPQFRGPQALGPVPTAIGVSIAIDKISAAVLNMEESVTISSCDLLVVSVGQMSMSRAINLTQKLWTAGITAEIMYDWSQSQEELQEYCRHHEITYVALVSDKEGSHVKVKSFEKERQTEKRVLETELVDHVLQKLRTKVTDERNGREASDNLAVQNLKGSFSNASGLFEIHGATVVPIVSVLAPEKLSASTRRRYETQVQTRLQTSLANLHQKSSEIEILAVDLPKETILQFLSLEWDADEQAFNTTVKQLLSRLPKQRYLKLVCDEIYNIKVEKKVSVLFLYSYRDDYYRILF
# Chain of Ribosomal protein S6 kinase alpha-2 (Homo sapiens) (Q15349 whole entry): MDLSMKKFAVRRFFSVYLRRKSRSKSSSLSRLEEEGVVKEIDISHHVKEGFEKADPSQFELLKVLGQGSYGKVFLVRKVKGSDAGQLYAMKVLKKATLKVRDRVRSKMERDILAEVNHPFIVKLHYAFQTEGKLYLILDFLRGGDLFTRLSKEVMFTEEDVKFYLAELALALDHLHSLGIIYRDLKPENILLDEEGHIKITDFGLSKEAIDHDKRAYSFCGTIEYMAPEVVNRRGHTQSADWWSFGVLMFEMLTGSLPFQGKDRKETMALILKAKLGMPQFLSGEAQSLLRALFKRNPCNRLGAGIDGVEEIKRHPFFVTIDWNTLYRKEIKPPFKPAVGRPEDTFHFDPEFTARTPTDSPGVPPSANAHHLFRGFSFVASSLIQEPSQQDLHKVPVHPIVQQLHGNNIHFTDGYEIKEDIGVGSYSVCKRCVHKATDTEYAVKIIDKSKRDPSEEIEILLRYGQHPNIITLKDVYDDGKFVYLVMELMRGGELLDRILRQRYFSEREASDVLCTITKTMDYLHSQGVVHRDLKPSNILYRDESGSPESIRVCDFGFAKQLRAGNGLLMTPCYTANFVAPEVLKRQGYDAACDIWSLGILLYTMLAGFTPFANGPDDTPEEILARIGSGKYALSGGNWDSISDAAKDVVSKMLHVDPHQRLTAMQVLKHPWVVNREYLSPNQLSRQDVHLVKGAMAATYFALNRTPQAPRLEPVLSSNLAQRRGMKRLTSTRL
# Chain of Cyclin-dependent kinase 5 (Q00535 whole entry, looked up): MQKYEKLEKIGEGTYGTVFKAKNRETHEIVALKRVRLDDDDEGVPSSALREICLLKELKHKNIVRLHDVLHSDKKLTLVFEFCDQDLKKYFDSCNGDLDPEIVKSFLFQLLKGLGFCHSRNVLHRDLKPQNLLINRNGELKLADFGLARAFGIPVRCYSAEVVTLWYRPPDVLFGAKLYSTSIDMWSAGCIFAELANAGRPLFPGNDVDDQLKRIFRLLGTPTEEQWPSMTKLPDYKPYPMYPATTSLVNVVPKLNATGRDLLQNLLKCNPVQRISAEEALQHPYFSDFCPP
# Chain of 5-hydroxytryptamine receptor 2B (P41595 whole entry): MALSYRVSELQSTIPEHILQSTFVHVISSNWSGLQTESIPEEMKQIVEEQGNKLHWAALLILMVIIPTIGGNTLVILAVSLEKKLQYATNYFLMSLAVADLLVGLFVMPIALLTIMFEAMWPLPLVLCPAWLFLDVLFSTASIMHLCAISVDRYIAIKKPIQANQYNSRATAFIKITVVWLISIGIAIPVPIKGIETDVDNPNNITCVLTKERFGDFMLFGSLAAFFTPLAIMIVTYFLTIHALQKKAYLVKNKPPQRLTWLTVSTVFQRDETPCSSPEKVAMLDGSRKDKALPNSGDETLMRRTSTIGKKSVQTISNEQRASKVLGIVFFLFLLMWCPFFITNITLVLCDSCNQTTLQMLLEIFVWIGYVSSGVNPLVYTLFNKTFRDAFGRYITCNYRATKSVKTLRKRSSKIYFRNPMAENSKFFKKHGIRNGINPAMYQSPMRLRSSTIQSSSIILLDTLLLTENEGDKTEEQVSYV
# Chain of Tyrosine-protein kinase ABL1 (P00519 whole entry): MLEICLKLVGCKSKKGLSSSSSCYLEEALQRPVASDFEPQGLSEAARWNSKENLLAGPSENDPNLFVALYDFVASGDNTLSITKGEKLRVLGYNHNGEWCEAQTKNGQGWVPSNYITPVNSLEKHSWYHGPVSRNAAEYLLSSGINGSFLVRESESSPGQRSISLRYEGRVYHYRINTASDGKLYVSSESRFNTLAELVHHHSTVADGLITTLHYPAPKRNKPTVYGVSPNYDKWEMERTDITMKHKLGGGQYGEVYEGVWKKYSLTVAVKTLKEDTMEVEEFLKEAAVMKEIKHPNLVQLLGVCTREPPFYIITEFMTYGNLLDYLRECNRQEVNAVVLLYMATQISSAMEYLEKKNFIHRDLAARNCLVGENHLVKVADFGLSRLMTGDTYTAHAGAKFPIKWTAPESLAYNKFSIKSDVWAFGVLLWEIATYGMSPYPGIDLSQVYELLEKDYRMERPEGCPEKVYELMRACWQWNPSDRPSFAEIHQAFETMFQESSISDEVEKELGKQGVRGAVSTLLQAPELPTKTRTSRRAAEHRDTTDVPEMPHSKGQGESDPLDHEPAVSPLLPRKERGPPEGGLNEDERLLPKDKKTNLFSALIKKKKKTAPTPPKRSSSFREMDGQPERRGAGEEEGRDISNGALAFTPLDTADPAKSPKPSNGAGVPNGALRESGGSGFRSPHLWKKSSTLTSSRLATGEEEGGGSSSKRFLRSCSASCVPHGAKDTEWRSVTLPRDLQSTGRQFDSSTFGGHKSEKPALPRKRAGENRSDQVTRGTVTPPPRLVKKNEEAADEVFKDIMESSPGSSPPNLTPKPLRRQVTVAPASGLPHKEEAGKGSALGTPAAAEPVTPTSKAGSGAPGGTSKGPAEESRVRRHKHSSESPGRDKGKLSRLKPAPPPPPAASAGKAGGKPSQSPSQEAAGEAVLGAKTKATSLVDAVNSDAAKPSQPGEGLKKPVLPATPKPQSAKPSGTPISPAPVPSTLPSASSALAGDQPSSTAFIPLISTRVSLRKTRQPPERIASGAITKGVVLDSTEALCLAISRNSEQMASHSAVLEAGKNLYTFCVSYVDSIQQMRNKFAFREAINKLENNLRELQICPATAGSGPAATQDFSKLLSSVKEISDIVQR
smiles,measurement,setting,value
COc1cc(Nc2nc(C)cc(-c3cnn4nc(OC)ccc34)n2)cc(C(F)(F)F)c1,% of control,[1],90%
O=C(NOC[C@H](O)CO)c1ccc(F)c(F)c1Nc1ccc(I)cc1F,% of control,[2],84%
CC[C@@H](Nc1c(C#N)c(-c2ccc(-c3cccc(C)c3F)cc2)nc2cnccc12)C(=O)O [BAY-091],% of inhibition,[3],98%
COCC(=O)NC/C=C/c1ccc2ncnc(Nc3ccc(Oc4ccc(C)nc4)c(C)c3)c2c1 [CP-724714],% of control,[4],100%
same,% of control,[5],100%
same,% of control,[6],100%
O[C@H]1CC[C@H](Nc2ncc3nc(Nc4c(F)cc(F)cc4F)n([C@H]4CCOC4)c3n2)CC1,% of control,[7],34%
Cc1cc([C@@H](C)Nc2ccccc2C(=O)O)c2nc(N3CCOCC3)cc(=O)n2c1 [AZD-6482],% of control,[8],79%
same,% of control,[9],87%
N#Cc1cccc(-c2c[nH]c3ncnc(N4CCOCC4)c23)c1,% of inhibition,[10],-9%
same,% of control,[11],86%
Cc1ccc(-c2ccc3c(ccc4sc5c(c43)NC[C@@H](C)NC5=O)n2)cn1,% of inhibition,[12],8%
C=CC(=O)Nc1cccc(C(=O)Nc2ccc(Nc3cc(-c4[nH]c(SC)nc4C)ccn3)cc2)c1,% of control,[13]; at 1 µM,91%
same,% of control,[13]; at 5 µM,80%
